# Measurements from the supplement of paper PMC10307832.
# Experiments:
# Assay in all cases: relative viability (nuclei count vs DMSO), 5 days (fraction); higher = more cells survive
# NVP-TAE684 + Olaparib = compound: COc1cc(N2CCC(N3CCN(C)CC3)CC2)ccc1Nc1ncc(Cl)c(Nc2ccccc2S(=O)(=O)C(C)C)n1 [NVP-TAE684] + O=C(c1cc(Cc2n[nH]c(=O)c3ccccc23)ccc1F)N1CCN(C(=O)C2CC2)CC1 [Olaparib] (partner 8 µM)
# Outline: (§1)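 After 5 days of treatment, lung cancer cells in 1536-well plates were fixed and stained in a single step (final 0.05% Triton X-100, 1% formaldehyde, 1 ug/ml Hoechst) and their nuclei counted on 4× images. Treatment had been applied by pin tool the day after seeding as one drug alone or as a fixed anchor-drug dose with five library-drug doses (not always all listed) in √10 steps. Relative viability is the nuclei count of treated wells divided by that of vehicle wells, and values are medians of duplicate plates.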
# NVP-TAE684 + Palbociclib = compound: COc1cc(N2CCC(N3CCN(C)CC3)CC2)ccc1Nc1ncc(Cl)c(Nc2ccccc2S(=O)(=O)C(C)C)n1 [NVP-TAE684] + CC(=O)c1c(C)c2cnc(Nc3ccc(N4CCNCC4)cn3)nc2n(C2CCCC2)c1=O [Palbociclib] (partner 0.5 µM)
# Outline: as §1
# [1] = compound: C1=CC=C2C(=C1)N=C(S2)C(C#N)C3=NC(=NC=C3)NCCC4=CN=CC=C4 + CC(C)C[C@H](NC(=O)[C@H](Cc1ccccc1)NC(=O)c1cnccn1)B(O)O [Bortezomib] (partner 0.002 µM)
# Outline: as §1
# [2] = compound: C1=CC=C2C(=C1)N=C(S2)C(C#N)C3=NC(=NC=C3)NCCC4=CN=CC=C4 + CC(=O)Nc1cccc(-n2c(=O)n(C3CC3)c(=O)c3c(Nc4ccc(I)cc4F)n(C)c(=O)c(C)c32)c1 [Trametinib] (partner 0.02 µM)
# Outline: as §1
Cell Line,relative viability (NVP-TAE684 + Olaparib; first compound 0.2 µM),relative viability (NVP-TAE684 + Olaparib; first compound 0.6325 µM),relative viability (NVP-TAE684 + Palbociclib; first compound 0.2 µM),relative viability (NVP-TAE684 + Palbociclib; first compound 0.6325 µM),relative viability (NVP-TAE684 + Palbociclib; first compound 2 µM),relative viability ([1]; first compound 0.005 µM),relative viability ([1]; first compound 0.01581 µM),relative viability ([1]; first compound 0.05 µM),relative viability ([1]; first compound 0.1581 µM),relative viability ([1]; first compound 0.5 µM),relative viability ([2]; first compound 0.005 µM),relative viability ([2]; first compound 0.01581 µM),relative viability ([2]; first compound 0.05 µM),relative viability ([2]; first compound 0.1581 µM),relative viability ([2]; first compound 0.5 µM),relative viability (NVP-TAE684 + Olaparib; first compound 2 µM)
NCI-H1755,0.926,0.965,0.441,0.472,0.401,0.943,1.07,0.996,1.13,0.884,0.764,0.736,0.746,0.848,0.761,
NCI-H1792,0.52,0.37,0.606,0.615,0.648,,1.04,0.941,1.11,0.534,,0.44,0.421,0.387,0.385,0.248
NCI-H1915,0.295,0.281,0.558,0.525,0.491,0.552,1.05,0.964,1.19,0.647,,0.318,0.304,0.329,0.305,0.228
NCI-H1975,0.862,0.748,0.591,0.589,0.37,0.377,0.41,0.367,0.414,0.307,0.377,0.362,0.293,0.414,0.329,0.288
NCI-H1993,1.11,1.09,0.437,0.614,0.475,1.02,1.07,0.886,1.1,1.06,0.374,0.516,0.458,0.514,0.466,0.749
NCI-H2009,0.657,0.665,0.2,0.183,0.203,0.936,0.906,1.03,1.08,0.993,0.26,0.264,0.26,0.314,0.334,0.634
NCI-H2023,0.587,0.518,0.291,0.358,0.116,0.893,0.956,0.942,1.14,1.02,0.602,0.532,0.547,0.538,0.489,0.138
NCI-H2085,0.819,0.754,0.463,0.512,0.478,0.861,1.05,0.781,1.24,0.94,0.528,0.652,0.521,0.576,0.481,0.714
NCI-H2087,0.646,0.598,0.206,0.22,0.248,0.567,0.809,0.786,0.834,0.512,0.222,0.201,0.203,0.212,0.186,0.503
NCI-H2126,0.88,,0.34,0.329,0.327,1.07,1.15,1.06,1.16,1.11,0.536,0.613,0.559,0.546,0.58,0.712
NCI-H2228,0.36,0.384,0.44,0.253,0.279,0.828,1.09,1.16,1.1,0.997,0.357,0.447,0.512,0.526,0.46,0.109
NCI-H2347,0.573,0.57,0.449,0.453,0.359,1.12,1.07,,1.13,0.962,0.282,0.268,0.296,0.3,0.267,0.49
NCI-H2405,0.923,0.825,0.524,0.525,0.337,1.04,0.965,0.982,,0.998,0.582,0.645,0.63,0.643,0.599,0.481
NCI-H3122,0.342,0.225,0.103,0.0833,0.0801,0.877,1.05,0.958,1.05,1.07,0.178,0.238,0.221,0.216,0.197,0.111
PC-3 [JPC-3],1.32,1.02,0.53,0.521,0.422,0.527,0.854,0.826,0.923,0.81,0.689,,0.642,0.737,0.636,
PC-14,0.237,0.255,0.434,0.398,0.0888,0.665,1.12,0.9,0.965,0.679,0.411,0.933,0.633,0.948,0.809,0.0711
RERF-LC-KJ,1.1,0.758,1.14,1.11,0.907,1.02,1.12,0.971,1.16,0.905,0.916,0.877,0.911,0.961,0.688,0.547
SK-LU-1,0.483,0.425,0.352,0.388,0.333,0.871,,0.998,1.42,1.23,0.461,0.437,0.413,0.532,0.474,0.352
SW 1573,0.519,0.401,0.414,0.294,0.169,0.659,1.26,,1.1,0.936,0.615,0.587,0.479,0.718,0.499,0.148
